Source: patent US20240299385A1 (ReWind Therapeutics NV, priority 2021, published 2024)

These molecules were tested against T1, human GPR17 receptor (Homo sapiens, UniProt Q13304) (assay: Calcium mobilization functional assay (Fluo-8, FLIPR TETRA) in HEK-293 hGPR17 (Gα-q assay)). Conditions: antagonism of MDL29,951 (~EC80) induced Ca2+ signal; cell line (HEK-293 hGPR17 or HEK-293 Suchi5 hGPR17) not given.
T1 construct: host or cells: HEK-293
Type: cell-based
Outline: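 Fluo-8-loaded HEK-293 hGPR17 cells (60 min dye loading, room temperature) were preincubated with compound for twenty minutes, then challenged with agonist MDL29,951 at ~EC80, 500 nM. Intracellular calcium release via Gα-q was recorded as FLIPR fluorescence for a further 2 minutes; compounds tested in duplicate.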

T1 sequence (Q13304 whole entry): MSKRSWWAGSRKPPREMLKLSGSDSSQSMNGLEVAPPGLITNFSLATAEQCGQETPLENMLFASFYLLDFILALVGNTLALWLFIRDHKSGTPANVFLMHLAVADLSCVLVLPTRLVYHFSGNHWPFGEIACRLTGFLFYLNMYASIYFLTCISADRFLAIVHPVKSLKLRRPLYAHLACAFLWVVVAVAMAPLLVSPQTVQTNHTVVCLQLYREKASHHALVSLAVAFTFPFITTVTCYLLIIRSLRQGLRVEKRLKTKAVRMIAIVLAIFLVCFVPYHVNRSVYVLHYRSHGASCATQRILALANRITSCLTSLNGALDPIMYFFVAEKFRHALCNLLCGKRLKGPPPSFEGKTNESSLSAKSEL

Structure (SMILES)	IC50
COc1cc(F)ccc1-c1cc(S(=O)(=O)Nc2ccc(C#N)cc2F)c[nH]1 [Cpd 352, N-(4-cyano-2-fluoro-phenyl)-5-(4-fluoro-2-methoxy-phenyl)-1H-pyrrole-3-sulfonamide]	0.5 to 5 µM
N#Cc1cc(F)c(NS(=O)(=O)c2c[nH]c(-c3ccccn3)c2)cc1F [Cpd 353, N-(4-cyano-2,5-difluoro-phenyl)-5-(2-pyridyl)-1H-pyrrole-3-sulfonamide]	< 0.5 µM
N#Cc1cc(F)c(NS(=O)(=O)c2c[nH]c(-c3ccccn3)c2)c(F)c1 [Cpd 354, N-(4-cyano-2,6-difluoro-phenyl)-5-(2-pyridyl)-1H-pyrrole-3-sulfonamide]	0.5 to 5 µM
N#Cc1ccccc1-c1cc(S(=O)(=O)Nc2cc(F)c(C(F)(F)F)cc2F)c[nH]1 [Cpd 355, 5-(2-cyanophenyl)-N-[2,5-difluoro-4-(trifluoromethyl)phenyl]-1H-pyrrole-3-sulfonamide]	0.5 to 5 µM
O=S(=O)(Nc1cc(F)c(C(F)(F)F)cc1F)c1c[nH]c(-c2cccc(Cl)c2)c1 [Cpd 356, 5-(3-chlorophenyl)-N-[2,5-difluoro-4-(trifluoromethyl)phenyl]-1H-pyrrole-3-sulfonamide]	0.5 to 5 µM
N#Cc1cc(F)c(NS(=O)(=O)c2c[nH]c(-c3ccccn3)c2)cc1Cl [Cpd 357, N-(5-chloro-4-cyano-2-fluoro-phenyl)-5-(2-pyridyl)-1H-pyrrole-3-sulfonamide]	< 0.5 µM
N#Cc1ccc(NS(=O)(=O)c2c[nH]c(C3=CCCCC3)c2)c(F)c1 [Cpd 358, N-(4-cyano-2-fluoro-phenyl)-5-(cyclohexen-1-yl)-1H-pyrrole-3-sulfonamide]	< 0.5 µM
O=S(=O)(Nc1cc(F)c(Br)cc1F)c1c[nH]cc1-c1cccc(F)c1 [Cpd 359, N-(4-bromo-2,5-difluoro-phenyl)-4-(3-fluorophenyl)-1H-pyrrole-3-sulfonamide]	0.5 to 5 µM
O=S(=O)(Nc1cc(F)c(OC(F)F)cc1F)c1c[nH]cc1-c1cccc(F)c1 [Cpd 360, N-[4-(difluoromethoxy)-2,5-difluoro-phenyl]-4-(3-fluorophenyl)-1H-pyrrole-3-sulfonamide]	< 0.5 µM
O=S(=O)(Nc1cc(F)c(C(F)(F)F)cc1F)c1c[nH]c(-c2ccccc2C(F)(F)F)c1 [Cpd 361, N-[2,5-difluoro-4-(trifluoromethyl)phenyl]-5-[2-(trifluoromethyl)phenyl]-1H-pyrrole-3-sulfonamide]	0.5 to 5 µM
O=S(=O)(Nc1cc(F)c(C(F)(F)F)cc1F)c1c[nH]c(-c2ccc(Cl)cc2F)c1 [Cpd 362, 5-(4-chloro-2-fluoro-phenyl)-N-[2,5-difluoro-4-(trifluoromethyl)phenyl]-1H-pyrrole-3-sulfonamide]	5 to 50 µM
O=S(=O)(Nc1cc(F)c(C(F)(F)F)cc1F)c1c[nH]c(-c2c(F)cccc2Cl)c1 [Cpd 363, 5-(2-chloro-6-fluoro-phenyl)-N-[2,5-difluoro-4-(trifluoromethyl)phenyl]-1H-pyrrole-3-sulfonamide]	0.5 to 5 µM
O=S(=O)(Nc1cc(F)c(C(F)(F)F)cc1F)c1c[nH]cc1-c1cccc(F)c1 [Cpd 364, N-[2,5-difluoro-4-(trifluoromethyl)phenyl]-4-(3-fluorophenyl)-1H-pyrrole-3-sulfonamide]	0.5 to 5 µM
O=S(=O)(Nc1cc(F)c(C(F)(F)F)cc1F)c1c[nH]c(-c2cccc(C(F)(F)F)c2)c1 [Cpd 365, N-[2,5-difluoro-4-(trifluoromethyl)phenyl]-5-[3-(trifluoromethyl)phenyl]-1H-pyrrole-3-sulfonamide]	0.5 to 5 µM
O=S(=O)(Nc1cc(F)c(C(F)(F)F)cc1F)c1c[nH]c(-c2ccc(F)cc2F)c1 [Cpd 366, 5-(2,4-difluorophenyl)-N-[2,5-difluoro-4-(trifluoromethyl)phenyl]-1H-pyrrole-3-sulfonamide]	0.5 to 5 µM
CSc1cccc(Cc2c[nH]cc2S(=O)(=O)Nc2ccc(C#N)cc2F)c1 [Cpd 367, N-(4-cyano-2-fluoro-phenyl)-4-[(3-methylsulfanylphenyl)methyl]-1H-pyrrole-3-sulfonamide]	< 0.5 µM
COCc1cccc(Cc2c[nH]cc2S(=O)(=O)Nc2ccc(C#N)cc2F)c1 [Cpd 368, N-(4-cyano-2-fluoro-phenyl)-4-[[3-(methoxymethyl)phenyl]methyl]-1H-pyrrole-3-sulfonamide]	0.5 to 5 µM
O=S(=O)(Nc1cc(F)c(C(F)(F)F)cc1F)c1c[nH]c(-c2ccc(C(F)(F)F)cn2)c1 [Cpd 369, N-[2,5-difluoro-4-(trifluoromethyl)phenyl]-5-[5-(trifluoromethyl)-2-pyridyl]-1H-pyrrole-3-sulfonamide]	5 to 50 µM
O=S(=O)(Nc1cc(F)c(C(F)(F)F)cc1F)c1c[nH]c(-c2cc(C(F)(F)F)ccn2)c1 [Cpd 370, N-[2,5-difluoro-4-(trifluoromethyl)phenyl]-5-[4-(trifluoromethyl)-2-pyridyl]-1H-pyrrole-3-sulfonamide]	5 to 50 µM
O=S(=O)(Nc1cc(F)c(C(F)(F)F)cc1F)c1c[nH]c(-c2cccc(Br)n2)c1 [Cpd 371, 5-(6-bromo-2-pyridyl)-N-[2,5-difluoro-4-(trifluoromethyl)phenyl]-1H-pyrrole-3-sulfonamide]	0.5 to 5 µM

Structure (SMILES)	IC50
N#Cc1ccc(NS(=O)(=O)c2c[nH]c(-c3cccc(Cl)n3)c2)c(F)c1 [Cpd 372, 5-(6-chloro-2-pyridyl)-N-(4-cyano-2-fluoro-phenyl)-1H-pyrrole-3-sulfonamide]	< 0.5 µM
N#Cc1ccc(NS(=O)(=O)c2c[nH]c(-c3cccc(C(F)(F)F)n3)c2)c(F)c1 [Cpd 373, N-(4-cyano-2-fluoro-phenyl)-5-[6-(trifluoromethyl)-2-pyridyl]-1H-pyrrole-3-sulfonamide]	0.5 to 5 µM
N#Cc1ccc(NS(=O)(=O)c2c[nH]c(-c3cccc(Br)n3)c2)c(F)c1 [Cpd 374, 5-(6-bromo-2-pyridyl)-N-(4-cyano-2-fluoro-phenyl)-1H-pyrrole-3-sulfonamide]	< 0.5 µM
O=S(=O)(Nc1cnc(C(F)(F)F)s1)c1c[nH]c(-c2ccccc2)c1 [Cpd 375, 5-phenyl-N-[2-(trifluoromethyl)thiazol-5-yl]-1H-pyrrole-3-sulfonamide]	5 to 50 µM
O=S(=O)(Nc1cc(Cl)c(C(F)(F)F)cc1F)c1c[nH]c(-c2ccccc2)c1 [Cpd 378, N-[5-chloro-2-fluoro-4-(trifluoromethyl)phenyl]-5-phenyl-1H-pyrrole-3-sulfonamide]	0.5 to 5 µM
O=S(=O)(Nc1cc(Cl)c(C(F)(F)F)cc1F)c1c[nH]c(-c2ccccn2)c1 [Cpd 379, N-[5-chloro-2-fluoro-4-(trifluoromethyl)phenyl]-5-pyridin-2-yl-1H-pyrrole-3-sulfonamide]	0.5 to 5 µM
N#Cc1ccc(NS(=O)(=O)c2c[nH]c(-c3cccc4cccnc34)c2)c(F)c1 [Cpd 380, N-(4-cyano-2-fluorophenyl)-5-(guinolin-8-yl)-1H-pyrrole-3-sulfonamide]	< 0.5 µM
N#Cc1ccc(NS(=O)(=O)c2c[nH]cc2-c2cccc3ccccc23)c(F)c1 [Cpd 381, N-(4-cyano-2-fluorophenyl)-4-naphthalen-1-yl-1H-pyrrole-3-sulfonamide]	5 to 50 µM
N#Cc1ccc(NS(=O)(=O)c2c[nH]c(-c3cccc4ccccc34)c2)c(F)c1 [Cpd 382, N-(4-cyano-2-fluorophenyl)-5-naphthalen-1-yl-1H-pyrrole-3-sulfonamide]	0.5 to 5 µM
Cc1c(C(F)(F)F)ccc(NS(=O)(=O)c2c[nH]c(-c3ccccn3)c2)c1F [Cpd 383, N-[2-fluoro-3-methyl-4-(trifluoromethyl)phenyl]-5-pyridin-2-yl-1H-pyrrole-3-sulfonamide]	5 to 50 µM
Cc1ccccc1Cc1c[nH]cc1S(=O)(=O)Nc1ccc(C#N)cc1F [Cpd 384, N-(4-cyano-2-fluorophenyl)-4-[(2-methylphenyl)methyl]-1H-pyrrole-3-sulfonamide]	0.5 to 5 µM
Cc1ccc(Cc2c[nH]cc2S(=O)(=O)Nc2ccc(C#N)cc2F)cc1 [Cpd 385, N-(4-cyano-2-fluorophenyl)-4-[(4-methylphenyl)methyl]-1H-pyrrole-3-sulfonamide]	5 to 50 µM
N#Cc1ccc(NS(=O)(=O)c2c[nH]cc2Cc2ccccc2C(F)(F)F)c(F)c1 [Cpd 386, N-(4-cyano-2-fluorophenyl)-4-[[2-(trifluoromethyl)phenyl]methyl]-1H-pyrrole-3-sulfonamide]	5 to 50 µM
N#Cc1ccc(NS(=O)(=O)c2c[nH]cc2Cc2ccc(C(F)(F)F)cc2)c(F)c1 [Cpd 387, N-(4-cyano-2-fluorophenyl)-4-[[4-(trifluoromethyl)phenyl]methyl]-1H-pyrrole-3-sulfonamide]	5 to 50 µM
N#Cc1ccc(NS(=O)(=O)c2c[nH]cc2Cc2ccccc2OC(F)(F)F)c(F)c1 [Cpd 388, N-(4-cyano-2-fluorophenyl)-4-[[2-(trifluoromethoxy)phenyl]methyl]-1H-pyrrole-3-sulfonamide]	0.5 to 5 µM
N#Cc1ccc(NS(=O)(=O)c2c[nH]cc2Cc2ccc(OC(F)(F)F)cc2)c(F)c1 [Cpd 389, N-(4-cyano-2-fluorophenyl)-4-[[4-(trifluoromethoxy)phenyl]methyl]-1H-pyrrole-3-sulfonamide]	5 to 50 µM
N#Cc1ccc(NS(=O)(=O)c2c[nH]cc2Cc2cccc(Br)c2)c(F)c1 [Cpd 391, 4-[(3-bromophenyl)methyl]-N-(4-cyano-2-fluorophenyl)-1H-pyrrole-3-sulfonamide]	< 0.5 µM
N#Cc1ccc(NS(=O)(=O)c2c[nH]cc2Cc2ccsc2)c(F)c1 [Cpd 392, N-(4-cyano-2-fluorophenyl)-4-(thiophen-3-ylmethyl)-1H-pyrrole-3-sulfonamide]	< 0.5 µM
O=S(=O)(Nc1cc(F)c(C(F)(F)F)cc1F)c1c[nH]c(-c2cc(F)ccc2F)c1 [Cpd 393, 5-(2,5-difluorophenyl)-N-[2,5-difluoro-4-(trifluoromethyl)phenyl]-1H-pyrrole-3-sulfonamide]	< 0.5 µM
COc1c(Cl)cccc1-c1cc(S(=O)(=O)Nc2ccc(C#N)cc2F)c[nH]1 [Cpd 394, 5-(3-chloro-2-methoxyphenyl)-N-(4-cyano-2-fluorophenyl)-1H-pyrrole-3-sulfonamide]	< 0.5 µM
